From patent US8546414B2, “Ion channel modulators and methods of use” (Vertex Pharmaceuticals Incorporated, priority 2004, dated 2013)

Tests used:
Assay type in all cases: cell-based
NaV1.3 = target: T1, NaV1.3 (Homo sapiens, UniProt Q9NY46); assay: VIPR optical membrane potential assay with electrical stimulation, NaV1.3; conditions: Table 9, NaV 1.3 receptors
T1 construct: expressed in transfected cells; host or cells: HEK293
Summary of the method: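 HEK293 cells stably expressing NaV1.3, stained with CC2-DMPE (10 μM final) then DiSBAC2(3) with ABSC1, 30 min each at RT; compounds added with oxonol. Electrical stimulation for 3 s; 460/580 nm background-subtracted emission ratio Rf/Ri, normalised to tetracaine (positive) and untreated (negative) controls.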

CaV2.2 = target: T2, CaV2.2 (Homo sapiens, UniProt Q00975); assay: VIPR optical membrane potential assay with electrical stimulation, CaV2.2; conditions: Table 9, CaV 2.2 receptors
T2 construct: expressed in transfected cells; host or cells: HEK293
Summary of the method: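 HEK293 cells stably expressing CaV2.2 stained with CC2-DMPE/DiSBAC2(3) voltage-sensitive dyes (10 μM final CC2-DMPE, 30 min, RT), then compound added and cells electrically stimulated for 3-5 s. Read-out: background-subtracted 460/580 nm emission ratio; response R=Rf/Ri (post- vs pre-stimulus ratio); antagonism seen as reduced response.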

NaV1.8 = NaV1.8 (Homo sapiens, UniProt Q9Y5Y9); assay: VIPR optical membrane potential assay, NaV1.8 (other subtypes in an analogous mode); conditions: Table 9, NaV 1.8 receptors
Description: Antagonist properties of test compounds were assessed as follows. Cells expressing the NaV of interest were placed into microtiter plates. After an incubation period, the cells were stained with fluorescent dyes sensitive to the transmembrane potential. The test compounds were added to the microtiter plate. The cells were stimulated with either chemical or electrical means to evoke a NaV dependent membrane potential change from unblocked channels, which was detected and measured with trans-membrane potential-sensitive dyes. Antagonists were detected as a decreased membrane potential response to the stimulus.
24 hours before the assay on VIPR, CHO cells endogenously expressing a NaV 1.2 type voltage-gated NaV are seeded in 96-well poly-lysine coated plates at 60,000 cells per well. […] Plates are incubated in the dark for 30 minutes at room temperature. • 4) While the cells are being stained with coumarin, a […] oxonol solution in BS#2 is prepared. […] As before, the residual volume should be 40 μL. • 6) Upon removing the bath, the cells are loaded with 80 μL of the DiSBAC2(3) solution, after which test compound, dissolved in DMSO, is added to achieve the desired test concentration to each well from the drug addition plate and mixed thoroughly. The volume in the well should be roughly 121 μL. The cells are then incubated for 20-30 minutes. • 7) Once the incubation is complete, the cells are ready to be assayed on VIPR® with a sodium addback protocol. 120 μL of Bath solution #1 is added to stimulate the NaV dependent depolarization. […] tetracaine was used as an antagonist positive control for block of the NaV channel. Analysis of VIPR® Data:
The following is an example of how NaV1.3 inhibition activity is measured using the optical membrane potential method#2. Other subtypes are performed in an analogous mode in a cell line expressing the NaV of interest.

NaV1.8, sequence (Q9Y5Y9 whole entry): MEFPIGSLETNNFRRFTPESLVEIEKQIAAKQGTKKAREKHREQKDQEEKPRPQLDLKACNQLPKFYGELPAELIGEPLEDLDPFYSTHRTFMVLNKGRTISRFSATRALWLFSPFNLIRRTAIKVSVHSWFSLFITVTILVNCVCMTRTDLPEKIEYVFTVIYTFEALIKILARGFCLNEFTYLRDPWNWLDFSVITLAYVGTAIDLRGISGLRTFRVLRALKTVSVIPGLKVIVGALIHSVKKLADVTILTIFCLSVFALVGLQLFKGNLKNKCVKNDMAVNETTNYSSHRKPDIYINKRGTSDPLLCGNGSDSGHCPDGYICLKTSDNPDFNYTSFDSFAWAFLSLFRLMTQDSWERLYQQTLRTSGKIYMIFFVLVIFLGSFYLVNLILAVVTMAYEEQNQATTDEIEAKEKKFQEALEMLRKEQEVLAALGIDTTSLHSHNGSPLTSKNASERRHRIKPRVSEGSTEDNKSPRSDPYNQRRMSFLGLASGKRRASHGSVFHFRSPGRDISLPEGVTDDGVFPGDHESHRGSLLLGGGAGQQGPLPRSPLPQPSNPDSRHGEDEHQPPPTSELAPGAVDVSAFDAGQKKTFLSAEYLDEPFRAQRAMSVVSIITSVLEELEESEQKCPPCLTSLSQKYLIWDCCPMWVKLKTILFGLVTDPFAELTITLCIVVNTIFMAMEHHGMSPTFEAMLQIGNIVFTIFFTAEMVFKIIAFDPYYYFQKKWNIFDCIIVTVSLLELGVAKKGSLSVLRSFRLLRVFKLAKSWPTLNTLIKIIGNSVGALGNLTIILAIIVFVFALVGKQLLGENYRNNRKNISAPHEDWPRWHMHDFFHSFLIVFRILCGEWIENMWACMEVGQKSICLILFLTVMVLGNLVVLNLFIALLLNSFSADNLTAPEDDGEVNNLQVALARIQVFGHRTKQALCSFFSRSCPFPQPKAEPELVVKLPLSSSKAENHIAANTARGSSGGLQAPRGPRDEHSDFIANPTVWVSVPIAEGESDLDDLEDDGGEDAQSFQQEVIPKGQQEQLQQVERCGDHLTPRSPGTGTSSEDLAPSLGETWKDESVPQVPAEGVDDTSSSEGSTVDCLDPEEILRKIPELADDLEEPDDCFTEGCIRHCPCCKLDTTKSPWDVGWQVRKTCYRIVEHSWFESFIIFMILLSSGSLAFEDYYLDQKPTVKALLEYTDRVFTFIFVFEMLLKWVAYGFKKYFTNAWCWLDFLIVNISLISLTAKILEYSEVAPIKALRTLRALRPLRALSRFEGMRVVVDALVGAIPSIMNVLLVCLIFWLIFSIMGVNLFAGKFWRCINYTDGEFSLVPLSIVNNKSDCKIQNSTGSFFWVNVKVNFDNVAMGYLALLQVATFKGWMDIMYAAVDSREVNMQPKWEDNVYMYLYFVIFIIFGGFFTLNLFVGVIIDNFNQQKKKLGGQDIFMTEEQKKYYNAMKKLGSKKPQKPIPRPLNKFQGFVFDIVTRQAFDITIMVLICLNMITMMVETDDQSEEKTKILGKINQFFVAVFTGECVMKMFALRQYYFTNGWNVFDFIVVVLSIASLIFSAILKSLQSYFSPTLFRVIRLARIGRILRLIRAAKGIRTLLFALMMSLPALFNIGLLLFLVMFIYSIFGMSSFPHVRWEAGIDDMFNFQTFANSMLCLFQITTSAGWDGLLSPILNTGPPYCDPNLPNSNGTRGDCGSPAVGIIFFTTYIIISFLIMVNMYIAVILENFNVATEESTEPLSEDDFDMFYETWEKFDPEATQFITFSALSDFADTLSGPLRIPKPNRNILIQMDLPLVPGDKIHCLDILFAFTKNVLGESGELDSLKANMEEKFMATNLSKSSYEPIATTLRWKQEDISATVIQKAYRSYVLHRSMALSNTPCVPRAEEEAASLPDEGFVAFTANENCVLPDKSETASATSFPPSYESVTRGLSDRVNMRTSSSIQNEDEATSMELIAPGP
T1 sequence (Q9NY46 whole entry): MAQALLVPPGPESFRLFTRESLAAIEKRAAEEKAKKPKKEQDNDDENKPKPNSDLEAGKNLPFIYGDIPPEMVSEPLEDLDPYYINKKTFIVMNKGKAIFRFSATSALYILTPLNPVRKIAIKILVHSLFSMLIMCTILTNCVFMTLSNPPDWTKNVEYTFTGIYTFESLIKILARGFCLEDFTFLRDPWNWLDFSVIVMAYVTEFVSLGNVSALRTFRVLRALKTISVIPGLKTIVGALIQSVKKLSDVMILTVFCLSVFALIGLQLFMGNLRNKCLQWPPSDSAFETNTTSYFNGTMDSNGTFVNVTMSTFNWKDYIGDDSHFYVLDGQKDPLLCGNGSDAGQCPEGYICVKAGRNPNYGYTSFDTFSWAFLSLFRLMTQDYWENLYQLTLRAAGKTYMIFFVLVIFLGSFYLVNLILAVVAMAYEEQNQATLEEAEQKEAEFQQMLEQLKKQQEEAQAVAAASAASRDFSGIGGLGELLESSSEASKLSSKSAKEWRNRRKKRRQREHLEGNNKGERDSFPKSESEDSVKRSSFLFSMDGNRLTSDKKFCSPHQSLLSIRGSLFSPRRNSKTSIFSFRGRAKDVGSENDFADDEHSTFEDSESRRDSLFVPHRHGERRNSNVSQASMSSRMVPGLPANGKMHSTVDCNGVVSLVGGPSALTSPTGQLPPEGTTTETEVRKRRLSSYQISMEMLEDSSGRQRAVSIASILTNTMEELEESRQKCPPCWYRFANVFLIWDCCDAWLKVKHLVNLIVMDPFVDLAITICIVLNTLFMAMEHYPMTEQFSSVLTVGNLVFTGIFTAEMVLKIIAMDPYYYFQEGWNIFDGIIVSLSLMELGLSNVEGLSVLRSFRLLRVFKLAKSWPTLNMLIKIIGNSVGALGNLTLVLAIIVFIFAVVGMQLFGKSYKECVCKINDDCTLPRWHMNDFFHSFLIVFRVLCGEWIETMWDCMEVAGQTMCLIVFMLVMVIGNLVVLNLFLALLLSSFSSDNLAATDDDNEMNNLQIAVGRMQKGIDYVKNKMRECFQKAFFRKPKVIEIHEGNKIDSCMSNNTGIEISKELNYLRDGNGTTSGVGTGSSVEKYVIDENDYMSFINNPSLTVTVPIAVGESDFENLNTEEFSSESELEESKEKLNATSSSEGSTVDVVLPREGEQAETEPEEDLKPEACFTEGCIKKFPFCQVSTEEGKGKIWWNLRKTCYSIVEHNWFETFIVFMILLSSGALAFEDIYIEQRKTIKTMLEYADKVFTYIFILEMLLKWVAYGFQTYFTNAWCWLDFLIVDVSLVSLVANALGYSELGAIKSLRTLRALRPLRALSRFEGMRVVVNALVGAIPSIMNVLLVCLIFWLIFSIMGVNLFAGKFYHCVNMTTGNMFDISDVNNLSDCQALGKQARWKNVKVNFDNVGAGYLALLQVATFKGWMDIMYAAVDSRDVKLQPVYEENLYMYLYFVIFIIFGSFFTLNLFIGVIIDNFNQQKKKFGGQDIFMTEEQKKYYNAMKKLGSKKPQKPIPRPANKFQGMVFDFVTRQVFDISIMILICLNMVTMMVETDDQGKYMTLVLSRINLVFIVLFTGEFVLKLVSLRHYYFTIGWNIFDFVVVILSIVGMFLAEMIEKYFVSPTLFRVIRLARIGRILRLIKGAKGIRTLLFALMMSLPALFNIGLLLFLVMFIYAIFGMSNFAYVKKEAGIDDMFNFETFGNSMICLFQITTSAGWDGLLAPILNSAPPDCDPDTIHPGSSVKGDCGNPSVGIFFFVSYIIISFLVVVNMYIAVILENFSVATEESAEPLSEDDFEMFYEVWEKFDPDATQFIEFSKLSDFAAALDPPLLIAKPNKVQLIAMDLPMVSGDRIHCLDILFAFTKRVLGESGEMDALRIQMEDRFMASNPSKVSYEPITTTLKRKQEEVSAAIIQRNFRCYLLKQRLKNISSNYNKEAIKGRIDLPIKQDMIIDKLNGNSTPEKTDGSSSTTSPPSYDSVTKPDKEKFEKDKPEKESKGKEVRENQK

Row | IC50 (NaV1.3) [µM] | IC50 (CaV2.2) [µM] | IC50 (NaV1.8) [µM] | Structure (SMILES)
1 | 2 to 10 | 2 to 10 | 2 to 10 | O=C(c1cnc(N2CCOCC2)nc1-c1ccccc1F)N(Cc1ccccc1)C1CCCC1 [compound 159]
2 | > 10 | > 10 | > 10 | O=C(c1cnc(N2CCOCC2)nc1-c1ccccc1F)N1CCCC(c2ccc(F)cc2)C1 (stereo not drawn) [compound 191]
3 | > 10 | > 10 | > 10 | COc1cccc(N(C(=O)c2cnc(N3CCOCC3)nc2-c2ccccc2F)C(C)C)c1 [compound 160]
4 | < 2 | < 2 | < 2 | COc1ccc(CN(C(=O)c2cnc(N3CCOCC3)nc2-c2ccccc2F)C2CC2)cc1 [compound 142]
5 | 2 to 10 | > 10 | > 10 | COc1cccc(N(C(=O)c2cnc(N3CCOCC3)nc2-c2ccccc2F)C2CCCC2)c1 [compound 169]
6 | 2 to 10 | 2 to 10 | > 10 | COc1cccc(CN(C(=O)c2c(C)nc(N3CCOCC3)nc2-c2ccccc2F)C(C)C)c1 [compound 186]
7 | 2 to 10 | 2 to 10 | 2 to 10 | Cc1nc(N2CCOCC2)nc(-c2ccccc2F)c1C(=O)N(Cc1ccccc1)C1CCCC1 [compound 143]
8 | 2 to 10 | 2 to 10 | 2 to 10 | COc1ccc(CN(C(=O)c2cnc(N3CCSCC3)nc2-c2ccccc2F)C2CC2)cc1 [compound 164]
9 | > 10 | > 10 | > 10 | COc1cccc(N(C(=O)c2cnc(N3CCOCC3)nc2-c2ccccc2F)C2CC2)c1 [compound 183]
10 | > 10 | > 10 | > 10 | CC(C)N(Cc1ccccc1)C(=O)c1cnc(N2CCN(C)CC2)nc1-c1ccccc1F [compound 167]
11 | 2 to 10 | < 2 | 2 to 10 | CC(C)N(Cc1ccccc1)C(=O)c1cnc(N2CCOCC2)nc1-c1ccccc1Cl [compound 194, N-benzyl-4-(2-chlorophenyl)-N-isopropyl-2-morpholinopyrimidine-5-carboxamide]
12 | > 10 | 2 to 10 | > 10 | CN1CCN(c2ncc(C(=O)N(Cc3ccccc3)C3CCCC3)c(-c3ccccc3F)n2)CC1 [compound 148]
13 | > 10 | > 10 | > 10 | O=C(c1cnc(N2CCOCC2)nc1-c1ccccc1F)N(Cc1cccnc1)C1CC1 [compound 138]
14 | > 10 | 2 to 10 | > 10 | COc1cccc(N(C(=O)c2cnc(N3CCC4CCCCC4C3)nc2-c2ccccc2F)C2CC2)c1 (stereo not drawn) [compound 189]

The remaining lines, values behind:

Row | Structure (SMILES) | IC50 (NaV1.3) [µM] | IC50 (CaV2.2) [µM] | IC50 (NaV1.8) [µM]
15 | COc1cccc(OC)c1-c1nc(N2CCOCC2)ncc1C(=O)N(Cc1ccccc1)C(C)C [compound 89] | > 10 | > 10 | > 10
16 | CC(C)N(Cc1ccccc1)C(=O)c1cnc(Nc2ccc3c(c2)OCO3)nc1-c1ccccc1F [compound 51] | 2 to 10 | 2 to 10 | > 10
17 | CC(C)N(Cc1ccccc1)C(=O)c1cnc(Nc2cccc(Cl)c2)nc1-c1ccccc1F [compound 177] | > 10 | > 10 | > 10
18 | Cc1nc(N2CCCCC2)nc(-c2ccccc2F)c1C(=O)N(Cc1ccc(C(C)(C)C)cc1)C(C)C [compound 32] | 2 to 10 | 2 to 10 | > 10
19 | O=C(c1cnc(N2CCOCC2)nc1-c1ccccc1F)N(Cc1ccc2c(c1)CCO2)C1CC1 [compound 53] | 2 to 10 | 2 to 10 | > 10
20 | O=C(c1cnc(N2CCOCC2)nc1-c1ccccc1F)N(Cc1cnc2ccccc2c1)C1CC1 [compound 99] | > 10 | > 10 | > 10
21 | CC(C)N(Cc1ccccc1)C(=O)c1cnc(N2CCc3ccccc3C2)nc1-c1ccccc1F [compound 78] | 2 to 10 | < 2 | 2 to 10
22 | CC(C)N(Cc1ccc(C(C)(C)C)cc1)C(=O)c1cnc(N2CCOCC2)nc1-c1ccccc1F [compound 24] | 2 to 10 | < 2 | 2 to 10
23 | CC(C)N(C(=O)c1cnc(N2CCCCC2)nc1-c1ccccc1F)c1cccc(C#N)c1 [compound 125] | > 10 | 2 to 10 | > 10
24 | CC(C)N(Cc1ccccc1)C(=O)c1cnc(NCCc2ccc(F)cc2)nc1-c1ccccc1F [compound 118] | 2 to 10 | < 2 | > 10
25 | O=C(c1cnc(N2CCOCC2)nc1-c1ccccc1F)N1CC=C(c2ccc(F)cc2)CC1 [compound 71] | > 10 | > 10 | > 10
26 | O=C(c1cnc(N2CCOCC2)nc1-c1ccccc1F)N1CC=C(c2ccccc2)CC1 [compound 91] | > 10 | > 10 | > 10
27 | CCN(CCOC)c1ncc(C(=O)N(Cc2cccc(OC)c2)C(C)C)c(-c2ccccc2F)n1 [compound 103] | < 2 | < 2 | > 10
28 | COc1cccc(N(C(=O)c2c(C)nc(N3CCOCC3)nc2-c2ccccc2F)C(C)C)c1 [compound 21] | > 10 | > 10 | > 10
29 | O=C(c1cnc(N2CCC3CCCCC3C2)nc1-c1ccccc1F)N(Cc1cccc(-c2ccncc2)c1)C1CC1 (stereo not drawn) [compound 114] | > 10 | < 2 | > 10
30 | CC(C)N(Cc1ccccc1)C(=O)c1cnc(N2CCC3CCCCC3C2)nc1-c1ccccc1F (stereo not drawn) [compound 92] | > 10 | < 2 | > 10

Row | Structure (SMILES) | IC50 (NaV1.3) [µM] | IC50 (CaV2.2) [µM] | IC50 (NaV1.8) [µM]
31 | CC1COc2ccccc2N1C(=O)c1cnc(N2CCOCC2)nc1-c1ccccc1F (stereo not drawn) [compound 84] | > 10 | > 10 | > 10
32 | O=C(c1cnc(N2CCOCC2)nc1-c1ccccc1F)N1CCc2ccccc2C1 [compound 107] | > 10 | > 10 | > 10
33 | O=C(c1cnc(N2CCOCC2)nc1-c1ccccc1F)N(Cc1cccc2ccccc12)C1CC1 [compound 40] | 2 to 10 | > 10 | > 10
34 | CC(C)N(Cc1ccccc1)C(=O)c1cnc(N2CCC(O)C2)nc1-c1ccccc1F (stereo not drawn) [compound 45] | > 10 | > 10 | > 10
35 | COc1ccc(CN(C(=O)c2cnc(N3CCCCC3)nc2-c2ccccc2Cl)C2CC2)cc1 [compound 36] | 2 to 10 | 2 to 10 | > 10
36 | Cc1nc(N2CCOCC2)nc(-c2ccccc2F)c1C(=O)N(Cc1ccc(C(C)(C)C)cc1)C(C)C [compound 31] | 2 to 10 | 2 to 10 | > 10
37 | CC(C)N(C(=O)c1cnc(N2CCC3CCCCC3C2)nc1-c1ccccc1F)c1ccccc1 (stereo not drawn) [compound 105] | 2 to 10 | 2 to 10 | > 10
38 | O=C(c1cnc(N2CCCCC2)nc1-c1ccccc1Cl)N(Cc1ccc2c(c1)CCO2)C1CC1 [compound 7] | 2 to 10 | 2 to 10 | > 10
39 | O=C(c1cnc(N2CCCCC2)nc1-c1ccccc1F)N(Cc1ccc2c(c1)CCO2)C1CC1 [compound 77] | 2 to 10 | 2 to 10 | > 10
40 | COc1cccc(N(C(=O)c2cnc(N3CCCCC3)nc2-c2ccccc2F)C2CCC2)c1 [compound 116] | 2 to 10 | 2 to 10 | > 10
41 | COc1cccc(N(C(=O)c2cnc(N3CCC4CCCCC4C3)nc2-c2ccccc2F)C2CCOCC2)c1 (stereo not drawn) [compound 68] | > 10 | 2 to 10 | > 10
42 | CC(C)N(Cc1ccccc1)C(=O)c1cnc(NC2CC3CCC2C3)nc1-c1ccccc1F (stereo not drawn) [compound 29] | 2 to 10 | < 2 | 2 to 10
43 | O=C(c1cnc(N2CCOCC2)nc1-c1ccccc1F)N(Cc1cccc(F)c1)C1CC1 [compound 110] | > 10 | 2 to 10 | > 10
44 | O=C(NC1CC1)c1cnc(N2CCOCC2)nc1-c1ccccc1F [compound 79] | > 10 | > 10 | > 10
45 | CC(C)N(C(=O)c1cnc(N2CCOCC2)nc1-c1ccccc1F)c1ccc2c(c1)OCO2 [compound 182] | > 10 | 2 to 10 | > 10
46 | COc1cccc(N(C(=O)c2cnc(N3CCCCC3)nc2-c2ccccc2Cl)C2CCCCC2)c1 [compound 115] | > 10 | 2 to 10 | > 10
